Test results reported in patent US5932410A, “Assay for the detection of proteases” (Commonwealth Scientific and Industrial Research …, priority 1994, dated 1999).
Where a SMILES comes first, the peptide text is derived from it. The star is where a group is joined. Cbz = O=C(OCc1ccccc1)*

Legend:
[1] = target: prostate specific antigen (PSA) (Homo sapiens, UniProt P07288); assay: Esterase assay, PSA on peptide ester substrates; format: biochemical; conditions: for Rate relative to Ac-AlaValTyr-OMe (218): rate of hydrolysis; for Substrate preference of PSA: within the substrate series tested
From the text: (§1) Advantage was taken of this activity to develop an "esterase" assay which uses a pH indicator to visualise the hydrogen ion release caused by the action of proteases on peptide-ester substrates. A series of twenty compounds of the form, carbobenzoxy alanyl-X-methyl ester (Z-AX-OMe) were synthesised where "X" is one of the naturally occurring amino acids. These substrates were used in a 96 well microtitre plate assay to screen each mutant enzyme for activity and specificity. The reactions were followed visually or quantified using a standard ELISA plate reader.
In all eleven compounds were synthesised and purified and tested where X was the residue listed below.

[2] = target: Chymotrypsin (Bos taurus, UniProt P00766); assay: Esterase assay, chymotrypsin; format: biochemical; conditions: Z-AX-OMe substrate; for Esterase rate, Chymotrypsin: X = P1 residue, rates approximately ± 10%; for % of maximum activity, Chymotrypsin: percentage of the maximum activity
From the text: as §1, with “reader. The esterase assay, using trypsin as a test enzyme and Z-Ala-Arg-OMe as substrate, was more sensitive as than traditional trypsin substrates (three times the rate obtained with benzoyl arginine ethyl aster and twenty times the rate of benzoyl arginine p-nitroanilide) (Whittaker et al., Analytical Biochemistry, 220, 238-243, 1994).” for “reader.”
(§2) The present inventors produced a panel of substrates carbobenzoxy alanyl-X-methyl eater (Z-AX-OMe) where X is one of the naturally occurring amino acids. The reactivity of these substrates with a number of serine proteases is set out in Table 1 and FIG. 1.
(§3) Rates are A580 change/min./mg protease. Rates are also shown as a […]

[3] = test system: Trypsin; assay: Esterase assay, trypsin; format: biochemical; conditions: Z-AX-OMe substrate; for Esterase rate, Trypsin: X = P1 residue, rates approximately ± 10%; for % of maximum activity, Trypsin: percentage of the maximum activity
From the text: as §1, with “reader. The esterase assay, using trypsin as a test enzyme and Z-Ala-Arg-OMe as substrate, was more sensitive as than traditional trypsin substrates (three times the rate obtained with benzoyl arginine ethyl aster and twenty times the rate of benzoyl arginine p-nitroanilide) (Whittaker et al., Analytical Biochemistry, 220, 238-243, 1994).” for “reader.”
as §2, §3

[4] = target: Thrombin (Homo sapiens, UniProt P00734); assay: Esterase assay, thrombin; format: biochemical; conditions: Z-AX-OMe substrate; for Esterase rate, Thrombin: X = P1 residue, rates approximately ± 10%; for % of maximum activity, Thrombin: percentage of the maximum activity
From the text: as §1, with “reader. The esterase assay, using trypsin as a test enzyme and Z-Ala-Arg-OMe as substrate, was more sensitive as than traditional trypsin substrates (three times the rate obtained with benzoyl arginine ethyl aster and twenty times the rate of benzoyl arginine p-nitroanilide) (Whittaker et al., Analytical Biochemistry, 220, 238-243, 1994).” for “reader.”
as §2, §3

[5] = target: Elastase (Sus scrofa, UniProt P00772); assay: Esterase assay, elastase; format: biochemical; conditions: Z-AX-OMe substrate; for Esterase rate, Elastase: X = P1 residue, rates approximately ± 10%; for % activity, Elastase: normalised to alanine
From the text: as §1, with “reader. The esterase assay, using trypsin as a test enzyme and Z-Ala-Arg-OMe as substrate, was more sensitive as than traditional trypsin substrates (three times the rate obtained with benzoyl arginine ethyl aster and twenty times the rate of benzoyl arginine p-nitroanilide) (Whittaker et al., Analytical Biochemistry, 220, 238-243, 1994).” for “reader.”
as §2, §3

[6] = target: α-Lytic protease (Lysobacter enzymogenes, UniProt P00778); assay: Esterase assay, α-lytic protease; format: biochemical; conditions: Z-AX-OMe substrate; for Esterase rate, α-Lytic protease: X = P1 residue, rates approximately ± 10%; for % activity, α-Lytic protease: normalised to alanine
From the text: as §1, with “reader. The esterase assay, using trypsin as a test enzyme and Z-Ala-Arg-OMe as substrate, was more sensitive as than traditional trypsin substrates (three times the rate obtained with benzoyl arginine ethyl aster and twenty times the rate of benzoyl arginine p-nitroanilide) (Whittaker et al., Analytical Biochemistry, 220, 238-243, 1994).” for “reader.”
as §2, §3

[7] = test system: Subtilisin; assay: Esterase assay, subtilisin; format: biochemical; conditions: Z-AX-OMe substrate; for Esterase rate, Subtilisin: X = P1 residue, rates approximately ± 10%; for % of maximum activity, Subtilisin: percentage of the maximum activity
From the text: as §1, with “reader. The esterase assay, using trypsin as a test enzyme and Z-Ala-Arg-OMe as substrate, was more sensitive as than traditional trypsin substrates (three times the rate obtained with benzoyl arginine ethyl aster and twenty times the rate of benzoyl arginine p-nitroanilide) (Whittaker et al., Analytical Biochemistry, 220, 238-243, 1994).” for “reader.”
as §2, §3

[8] = target: Proteinase K (Parengyodontium album, UniProt P06873); assay: Esterase assay, proteinase K; format: biochemical; conditions: Z-AX-OMe substrate; for Esterase rate, Proteinase K: X = P1 residue, rates approximately ± 10%; for % of maximum activity, Proteinase K: percentage of the maximum activity
From the text: as §1, with “reader. The esterase assay, using trypsin as a test enzyme and Z-Ala-Arg-OMe as substrate, was more sensitive as than traditional trypsin substrates (three times the rate obtained with benzoyl arginine ethyl aster and twenty times the rate of benzoyl arginine p-nitroanilide) (Whittaker et al., Analytical Biochemistry, 220, 238-243, 1994).” for “reader.”
as §2, §3

[9] = test system: Trypsin; conditions: trypsin as test enzyme; cited from earlier work
[10] = substrates of the form Ac-Ala-x-TyrOMe, FIG. 2

Proteinase K, sequence (P06873 106-384): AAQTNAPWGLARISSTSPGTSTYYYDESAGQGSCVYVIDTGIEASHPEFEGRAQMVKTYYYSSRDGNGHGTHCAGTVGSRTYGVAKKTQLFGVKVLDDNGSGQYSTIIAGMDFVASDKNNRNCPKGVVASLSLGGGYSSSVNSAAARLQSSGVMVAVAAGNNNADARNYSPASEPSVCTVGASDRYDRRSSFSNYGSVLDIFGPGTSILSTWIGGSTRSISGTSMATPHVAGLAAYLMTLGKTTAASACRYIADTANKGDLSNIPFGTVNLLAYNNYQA
prostate specific antigen (PSA), sequence (P07288 25-261): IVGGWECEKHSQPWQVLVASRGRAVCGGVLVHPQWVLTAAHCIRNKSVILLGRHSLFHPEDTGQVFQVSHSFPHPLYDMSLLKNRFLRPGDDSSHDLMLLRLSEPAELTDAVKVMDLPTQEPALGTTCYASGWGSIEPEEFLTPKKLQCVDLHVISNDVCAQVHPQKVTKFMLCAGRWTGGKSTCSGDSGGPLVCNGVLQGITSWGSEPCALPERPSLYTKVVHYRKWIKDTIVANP
Elastase, sequence (P00772 27-266): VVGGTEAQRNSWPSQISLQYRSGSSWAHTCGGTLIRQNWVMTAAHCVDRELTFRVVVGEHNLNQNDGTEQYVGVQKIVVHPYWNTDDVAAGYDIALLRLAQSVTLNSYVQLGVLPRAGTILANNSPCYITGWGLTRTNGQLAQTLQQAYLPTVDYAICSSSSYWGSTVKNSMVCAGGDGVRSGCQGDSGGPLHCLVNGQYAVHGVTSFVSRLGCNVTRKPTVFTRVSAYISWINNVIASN
α-Lytic protease, sequence (P00778 25-397 limits assumed): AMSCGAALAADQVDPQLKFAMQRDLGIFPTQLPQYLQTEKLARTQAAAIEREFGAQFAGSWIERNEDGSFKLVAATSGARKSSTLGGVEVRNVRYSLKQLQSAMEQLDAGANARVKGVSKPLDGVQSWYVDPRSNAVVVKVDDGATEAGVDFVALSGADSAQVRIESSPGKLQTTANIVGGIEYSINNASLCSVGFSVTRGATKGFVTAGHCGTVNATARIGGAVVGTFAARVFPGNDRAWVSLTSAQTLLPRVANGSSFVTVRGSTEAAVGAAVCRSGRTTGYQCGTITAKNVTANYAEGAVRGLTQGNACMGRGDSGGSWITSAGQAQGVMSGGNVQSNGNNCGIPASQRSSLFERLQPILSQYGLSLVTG

| Compound | Esterase rate, Chymotrypsin [2] | % of maximum activity, Chymotrypsin [2] | Esterase rate, Trypsin [3] | % of maximum activity, Trypsin [3] | Esterase rate, Thrombin [4] | % of maximum activity, Thrombin [4] | Esterase rate, Elastase [5] | % activity, Elastase [5] | Esterase rate, α-Lytic protease [6] | % activity, α-Lytic protease [6] | Esterase rate, Subtilisin [7] | % of maximum activity, Subtilisin [7] | Esterase rate, Proteinase K [8] | % of maximum activity, Proteinase K [8] | other results |
| --- | --- | --- | --- | --- | --- | --- | --- | --- | --- | --- | --- | --- | --- | --- | --- |
| COC(=O)[C@H](Cc1ccc(O)cc1)NC(=O)[C@H](CC(C)C)NC(=O)[C@H](C)NC(C)=O [Ac-AlaLeuTyr-OMe] (Ac-Ala-Leu-Tyr-OMe) | – | – | – | – | – | – | – | – | – | – | – | – | – | – | Rate relative to Ac-AlaValTyr-OMe (218) ([1]; PSA): 70% |
| COC(=O)[C@H](Cc1ccc(O)cc1)NC(=O)[C@@H](NC(=O)[C@H](C)NC(=O)[C@@H](NC(C)=O)C(C)C)C(C)C [Ac-Val AlaValTyr-OMe] (Ac-VAVY-OMe) | – | – | – | – | – | – | – | – | – | – | – | – | – | – | Rate relative to Ac-AlaValTyr-OMe (218) ([1]; PSA): 64.6% |
| COC(=O)[C@H](CCCNC(=N)N)NC(=O)[C@H](C)NC(=O)OCc1ccccc1 [Arg, Z-Ala-Arg-OMe] (Cbz-Ala-Arg-OMe) | 1.1 A580 change/min./mg protease | 2.0% | 355.4 A580 change/min./mg protease | 100% | 8.7 A580 change/min./mg protease | 100% | 0 A580 change/min./mg protease | 0% | 0 A580 change/min./mg protease | 0% | 97 A580 change/min./mg protease | 4.5% | 24 A580 change/min./mg protease | 3.1% | Rate relative to benzoyl arginine ethyl ester [9]: three times; Rate relative to benzoyl arginine p-nitroanilide [9]: twenty times |
| COC(=O)[C@H](CCSC)NC(=O)[C@H](C)NC(=O)OCc1ccccc1 [Met] (Cbz-Ala-Met-OMe) | 6.6 A580 change/min./mg protease | 12.0% | 0 A580 change/min./mg protease | 0% | 0 A580 change/min./mg protease | 0% | trace | – | 2.0 A580 change/min./mg protease | 32.3% | 2149 A580 change/min./mg protease | 100% | 525 A580 change/min./mg protease | 67.7% | – |
| COC(=O)[C@H](Cc1ccccc1)NC(=O)[C@H](C)NC(=O)OCc1ccccc1 [Phe] | 37.8 A580 change/min./mg protease | 68.5% | 2.9 A580 change/min./mg protease | 0.8% | 0 A580 change/min./mg protease | 0% | 0 A580 change/min./mg protease | 0% | 0 A580 change/min./mg protease | 0% | 998 A580 change/min./mg protease | 46.0% | 342 A580 change/min./mg protease | 44.1% | – |
| COC(=O)[C@@H]1CCCN1C(=O)[C@H](C)NC(=O)OCc1ccccc1 [Pro] (Cbz-Ala-Pro-OMe) | 0 A580 change/min./mg protease | 0% | 0 A580 change/min./mg protease | 0% | 0 A580 change/min./mg protease | 0% | 0 A580 change/min./mg protease | 0% | 0 A580 change/min./mg protease | 0% | trace | – | trace | – | – |
| COC(=O)[C@H](CO)NC(=O)[C@H](C)NC(=O)OCc1ccccc1 [Ser] (Cbz-Ala-Ser-OMe) | trace | – | 0 A580 change/min./mg protease | 0% | 0 A580 change/min./mg protease | 0% | 0.4 A580 change/min./mg protease | 3.6% | 0.7 A580 change/min./mg protease | 11.3% | 366 A580 change/min./mg protease | 17.0% | 348 A580 change/min./mg protease | 44.9% | – |
| COC(=O)[C@H](Cc1ccc(O)cc1)NC(=O)[C@@H](NC(=O)[C@H](C)NC(C)=O)C(C)C [Substrate 218, Ac-AlaValTyr-OMe] (Ac-Ala-Val-Tyr-OMe) | – | – | – | – | – | – | – | – | – | – | – | – | – | – | Rate relative to Z-AlaTyr OMe (the screening substrate) ([1]; PSA, from the graph (FIG. 2)): 15.5; Substrate preference of PSA [1]: best |
| COC(=O)[C@@H](NC(=O)[C@H](C)NC(=O)OCc1ccccc1)[C@@H](C)O [Thr] (Cbz-Ala-Thr-OMe) | trace | – | 0 A580 change/min./mg protease | 0% | 0 A580 change/min./mg protease | 0% | 3.1 A580 change/min./mg protease | 19.7% | 4.2 A580 change/min./mg protease | 67.7% | 123 A580 change/min./mg protease | 5.7% | 90 A580 change/min./mg protease | 11.6% | – |
| COC(=O)[C@H](Cc1c[nH]c2ccccc12)NC(=O)[C@H](C)NC(=O)OCc1ccccc1 [Trp] (Cbz-Ala-Trp-OMe) | 27.2 A580 change/min./mg protease | 49.3% | trace | – | 0 A580 change/min./mg protease | 0% | 0 A580 change/min./mg protease | 0% | 0 A580 change/min./mg protease | 0% | 216 A580 change/min./mg protease | 10.1% | 353 A580 change/min./mg protease | 45.5% | – |
| COC(=O)[C@H](Cc1ccc(O)cc1)NC(=O)[C@H](C)NC(=O)OCc1ccccc1 [Tyr, Z-Ala-Tyr-OMe] (Cbz-Ala-Tyr-OMe) | 55.2 A580 change/min./mg protease | 100% | 10.8 A580 change/min./mg protease | 3.0% | 0 A580 change/min./mg protease | 0% | 0 A580 change/min./mg protease | 0% | 0 A580 change/min./mg protease | 0% | 345 A580 change/min./mg protease | 16.1% | 80 A580 change/min./mg protease | 10.3% | Substrate preference of PSA [1]: preferred substrate |
| COC(=O)[C@@H](NC(=O)[C@H](C)NC(=O)OCc1ccccc1)C(C)C [Val] (Cbz-Ala-Val-OMe) | 0 A580 change/min./mg protease | 0% | 0 A580 change/min./mg protease | 0% | 0 A580 change/min./mg protease | 0% | 2.1 A580 change/min./mg protease | 13.4% | 1.3 A580 change/min./mg protease | 21.0% | 35 A580 change/min./mg protease | 1.6% | 97 A580 change/min./mg protease | 12.5% | – |
| PSA: prostate specific antigen, a protease; the enzyme tested on the substrates | – | – | – | – | – | – | – | – | – | – | – | – | – | – | Rate of PSA [1, 10]: 0.0263 OD580 change/min/μg; Rate of PSA, equivalent [1, 10]: 9.99 μmoles substrate/min/mg |
